Laboratory results taken from patent publication US20110027205A1, “USE OF MYRTLE EXTRACT AS DEPIGMENTING AGENT” (PIERRE FABRE DERMO-COSMETIQUE, priority 2008, published 2011).

System: melanocytes
Experiment: Activity on melanogenesis (melanin content of melanocytes, 450 nm)
Assay type: cell-based
Details: Melanocyte, 72 hours, read-out: % inhibition of melanin synthesis
Method: The melanocytes are left to incubate in a suitable culture medium at 37° C. for 72 hours in contact with the myrtle extract according to example 1, at different concentrations, and with hydroquinone, the reference substance. At the end of the incubation period, the melanocytes are collected and washed. The cells are then treated with a sodium solution to extract the melanin. The stained solutions are then assayed under 450 nm spectrophotometry for their melanin content using a calibration curve. A melanogenesis-inhibiting activity of the tested products will translate as a lower melanin content in the extracted melanocyte solutions. A prior cytotoxicity test is evidently performed on these same cells to verify the non-toxicity of the extracts at the tested concentrations.

Which results are given for `Oc1ccc(O)cc1` [Hydroquinone]?
inhibition at 5 µM (0.005 mM): 35.7%; inhibition at 10 µM (0.01 mM): 58%
